The values below come from US12661410B2, “Compounds for targeted degradation of RET” (C4 Therapeutics, Inc., priority 2020, dated 2026).

Where a chain is given by its changes, count along the chain named. Like-named read-outs stand apart in the source and are kept apart here.

One may read the Emax as the size of the effect at its maximum, as opposed to the concentration needed. As usually defined, the DC50 is the concentration giving 50% degradation.

One assay has as its target T1, RET(KD: 658-1114 G810R) (Homo sapiens, UniProt P07949, G810R).
T1 construct: 658-1114; expressed in transfected cells; host or cells: 293T.165 (293T cells, generated in-house)
T1 sequence (P07949 658-1114 G810R): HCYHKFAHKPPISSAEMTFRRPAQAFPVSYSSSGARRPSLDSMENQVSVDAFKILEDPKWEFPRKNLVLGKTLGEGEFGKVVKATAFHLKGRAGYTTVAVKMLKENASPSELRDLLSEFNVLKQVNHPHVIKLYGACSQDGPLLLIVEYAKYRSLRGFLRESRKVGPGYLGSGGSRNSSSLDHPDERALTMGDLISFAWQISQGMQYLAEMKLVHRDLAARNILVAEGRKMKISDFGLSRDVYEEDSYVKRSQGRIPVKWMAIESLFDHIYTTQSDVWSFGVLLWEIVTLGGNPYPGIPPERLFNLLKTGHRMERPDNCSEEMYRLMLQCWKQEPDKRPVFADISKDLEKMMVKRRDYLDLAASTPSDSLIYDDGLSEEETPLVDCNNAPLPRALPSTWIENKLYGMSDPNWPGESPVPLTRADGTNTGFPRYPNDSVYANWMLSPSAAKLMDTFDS
Put plainly: HiBiT-Degradation, RET G810R degradation assay (Nano-Glo HiBiT Lytic), 293T.165 cells. The assay is classed as cell-based. To be noted: for Emax / DC50: 6.0 hours. The procedure, abridged:
(§1)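 Degradation quantified by HiBiT lytic luminescence in 293T cells expressing tagged WT or G810R RET kinase domain after 6 h dosing up to 10 μM; DC50 and Emax fitted.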
For orientation: With HiBiT, luminescence reflects the tagged protein that the partner subunit can reach.

The target in the next assay is T2, RET (658-1114) (Homo sapiens, UniProt P07949).
T2 construct: 658-1114; expressed in transfected cells; host or cells: 293T.144 (293T cells, generated in-house)
T2 sequence (P07949 658-1114): T1 sequence (P07949 658-1114 G810R) with R153G
Put plainly: HiBiT-Degradation, RET wild-type degradation assay (Nano-Glo HiBiT Lytic), 293T.144 cells. It is filed as cell-based. To be noted: for Emax / DC50: 6.0 hours. The procedure, abridged: as §1

Setting [1] is: % remaining protein, read-out: 293T.165 RET(KD: 658-1114 G810R) 6.0 hours (Emax).
Where [2] appears, read: half-maximal degradation concentration, read-out: 293T.165 RET(KD: 658-1114 G810R) 6.0 hours (DC50).
[3] abbreviates: % remaining protein, read-out: 293T.144 RET (658-1114) 6.0 hours (Emax).
Setting [4] is: half-maximal degradation concentration, read-out: 293T.144 RET (658-1114) 6.0 hours (DC50).

Turning to `CCC1(C(=O)NC2CCC2)CCN(c2ccc(-c3nc(-c4cnn([C@H]5CC[C@H](N6CCC(c7ccc(N[C@H]8CCC(=O)NC8=O)cc7Cl)CC6)CC5)c4)cn4ncc(C#N)c34)cn2)CC1` (single isomer, unassigned) [Compound 130], the “293T.165 RET(KD: 658-1114 G810R) 6.0 hours (IP) [nM]” value on RET(KD: 658-1114 G810R) is recorded as “++++ (<50 nM = ++++)”. Further, the Emax at RET(KD: 658-1114 G810R) (setting [1]) and on RET (658-1114) (setting [3]) was below 30% throughout. Further, the 50% degradation concentration (DC50) on RET(KD: 658-1114 G810R) (setting [2]) and at RET (658-1114) (setting [4]) was below 50 nM in each case. For the same compound, the “293T.144 RET (658-1114) 6.0 hours (IP) [nM]” value at RET (658-1114) is “++++ (<50 nM = ++++)”.

With `N#Cc1cnn2cc(-c3ccc(N4CCN(C(=O)CN5CCC(c6ccc(NC7CCC(=O)NC7=O)cc6)CC5)CC4)cc3)cc(-c3ccc(N4CCOCC4)nc3)c12` (stereo not shown) [Compound 24, 6-(4-(4-(2-(4-(4-((2,6-Dioxopiperidin-3-yl)amino)phenyl)piperidin-1-yl)acetyl)piperazin-1-yl)phenyl)-4-(6-morpholinopyridin-3-yl)pyrazolo[1,5-a]pyridine-3-carbonitrile], the Emax was below 50% at RET(KD: 658-1114 G810R) (setting [1]) and below 30% on RET (658-1114) (HiBiT-Degradation, read-out: 293T.144 RET (658-1114) 6.0 hours (Emax)). For the same compound, the DC50 on RET(KD: 658-1114 G810R) (setting [2]) is below 100 nM; at RET(KD: 658-1114 G810R) (HiBiT-Degradation, read-out: 293T.165 RET(KD: 658-1114 G810R) 6.0 hours (DC50)), below 100 nM; at RET (658-1114) (HiBiT-Degradation, read-out: 293T.144 RET (658-1114) 6.0 hours (DC50)), below 50 nM. Besides, the “293T.165 RET(KD: 658-1114 G810R) 6.0 hours (Emax)” value at RET(KD: 658-1114 G810R) (HiBiT-Degradation) was “+++ (<50% = +++)”. For the same compound, the “293T.165 RET(KD: 658-1114 G810R) 6.0 hours (IP) [nM]” value at RET(KD: 658-1114 G810R) (HiBiT-Degradation) is recorded as “++++ (< 50 nM = ++++)”. Also, on RET (658-1114) (HiBiT-Degradation), the “293T.144 RET (658-1114) 6.0 hours (IP) [nM]” value is “++++ (< 50 nM = ++++)”.

Turning to `CCC1(C(=O)NC(C)C)CCN(c2ccc(-c3cc(-c4cnn(C5CC6(C5)CN(C5CCN(c7ccc(NC8CCC(=O)NC8=O)cc7F)CC5)C6)c4)cn4ncc(C#N)c34)cn2)CC1` (stereo not shown) [Compound 199, 1-(5-(3-cyano-6-(1-(2-(1-(4-((2,6-dioxopiperidin-3-yl)amino)-2-fluorophenyl)piperidin-4-yl)-2-azaspiro[3.3]heptan-6-yl)-1H-pyrazol-4-yl)pyrazolo[1,5-a]pyridin-4-yl)pyridin-2-yl)-4-ethyl-N-isopropylpiperidine-4-carboxamide], at RET(KD: 658-1114 G810R), the “293T.165 RET(KD: 658-1114 G810R) 6.0 hours (IP) [nM]” value is recorded as “+++ (<100 nM = +++)”. Further, the Emax on RET(KD: 658-1114 G810R) (setting [1]) and on RET (658-1114) (setting [3]) was below 30% each time. The DC50 at RET(KD: 658-1114 G810R) (setting [2]) and at RET (658-1114) (setting [4]) was below 50 nM throughout. Also, the “293T.144 RET (658-1114) 6.0 hours (IP) [nM]” value at RET (658-1114) is “++++ (<50 nM = ++++)”.

For the compound `CC(C)NC(=O)C1(C)CCN(c2ccc(-c3cc(-c4cnn([C@H]5CC[C@H](CCN6CCC(c7ccc8c(N9CCC(=O)NC9=O)nn(C)c8c7)CC6)CC5)c4)cn4ncc(C#N)c34)cn2)CC1` [Compound 86, 1-[5-[3-cyano-6-[1-[(1r,4r)-4-[2-[4-[3-(2,4-dioxohexahydropyrimidin-1-yl)-1-methyl-indazol-6-1]-1-piperidyl]ethyl]cyclohexyl]pyrazol-4-yl]pyrazolo[1,5-a]pyridin-4-yl]-2-pyridyl]-N-isopropyl-4-methyl-piperidine-4-carboxamide], the Emax on RET(KD: 658-1114 G810R) (setting [1]) was below 30%; at RET(KD: 658-1114 G810R) (RET G810R, read-out: HiBiT-Degradation 293T.165 RET(KD: 658-1114 G810R) 6.0 hours (Emax)), below 30%; on RET (658-1114) (RET wild-type, read-out: HiBiT-Degradation 293T.144 RET (658-1114) 6.0 hours (Emax)) it was below 30%. Moreover, the DC50 at RET(KD: 658-1114 G810R) (setting [2]) was below 100 nM; on RET(KD: 658-1114 G810R) (RET G810R, read-out: HiBiT-Degradation 293T.165 RET(KD: 658-1114 G810R) 6.0 hours (DC50)), below 100 nM; at RET (658-1114) (RET wild-type, read-out: HiBiT-Degradation 293T.144 RET (658-1114) 6.0 hours (DC50)), below 50 nM. In addition, the “HiBiT-Degradation 293T.165 RET(KD: 658-1114 G810R) 6.0 hours (IP) [nM]” value at RET(KD: 658-1114 G810R) (RET G810R) is listed as “++++ (< 50 nM = ++++)”. Moreover, the “HiBiT-Degradation 293T.144 RET (658-1114) 6.0 hours (IP) [nM]” value on RET (658-1114) (RET wild-type) is reported as “++++ (< 50 nM = ++++)”.

Turning to `CCC1(C(=O)Nc2ccccc2)CCN(c2ccc(-c3nc(-c4cnn(C5CCN(C(=O)CC6(O)CCN(c7ccc(NC8CCC(=O)NC8=O)cc7Cl)CC6)CC5)c4)cn4ncc(C#N)c34)cn2)CC1` (stereo not shown) [Compound 98, 1-[5-[6-[1-[1-[2-[1-[2-chloro-4-[(2,6-dioxo-3-piperidyl)amino]phenyl]-4-hydroxy-4-piperidyl]acetyl]-4-piperidyl]pyrazol-4-yl]-3-cyano-pyrazolo[1,5-a]pyrazin-4-yl]-2-pyridyl]-4-ethyl-N-phenyl-piperidine-4-carboxamide], the “293T.165 RET(KD: 658-1114 G810R) 6.0 hours (IP) [nM]” value at RET(KD: 658-1114 G810R) was “++++ (<50 nM = ++++)”. In addition, the Emax on RET(KD: 658-1114 G810R) (setting [1]) and on RET (658-1114) (setting [3]) was below 30% in each case. The DC50 was below 100 nM on RET(KD: 658-1114 G810R) (setting [2]) and below 50 nM on RET (658-1114) (setting [4]). For the same compound, the “293T.144 RET (658-1114) 6.0 hours (IP) [nM]” value on RET (658-1114) is reported as “++++ (<50 nM = ++++)”.
